Assay results taken from patent US20250144178A1, “PHARMACEUTICAL COMPOSITION FOR CANCER TREATMENT COMPRISING FUSION PROTEIN INCLUDING IL-12 AND ANTI-FAP ANTIBODY AND ANTICANCER AGENT” (KANAPH THERAPEUTICS INC., priority 2022, published 2025).

Experiments:
HEK-Blue IL-12 cells = test: Signaling ability in IL-12 recognizing cells (STAT4 inducible SEAP reporter); format: cell-based, human; details: serial dilution from 4 nM, 24 hours, FIG. 18
Procedure: The HEK-Blue IL-12 cell line transformed with the IL-12 receptor gene and the STAT4 inducible SEAP reporter gene into HEK293 cells, which are human embryonic kidney fibroblasts, was obtained from Invivogen (San Diego, USA). The HEK-Blue IL-12 cells were maintained in DMEM (GIBCO) containing 10% FBS (GIBCO), 100 μg/ml Normocin and 1×HEK-Blue selection.
Specifically, the HEK-Blue IL-12 cell line, which is an IL-12 recognizing cell, was diluted to 2.8×10^5 cells/ml and dispensed at 180 μl/well. Recombinant human IL-12, T1.01m, T1.02m, T1.03m and T1.12m were suspended at 4 nM and diluted by serial dilution. HEK-Blue IL-12 cells were treated with the diluted recombinant human IL-12, T1.01m, T1.02m, T1.03m and T1.12m. After 24 hours of treatment, the cell supernatant was collected and mixed with QUANTI-Blue Solution (Invivogen) in a 96-well plate. The reporter expression level was measured at 620 nm using a spectrophotometer (Thermo Fisher).

[1] = system: IL-12 receptor of human T cells; test: p-STAT4 signaling ability in human T cells (AlphaLISA); format: cell-based; details: anti-CD3 activated human T cells, 2 hours, FIG. 19; read-out: half maximal effective concentration (EC50), p-STAT4
Procedure: In order to identify whether when IL-12 binds to the IL-12 receptor of human T cells, IL-12 initiate signaling by inducing phosphorylation of STAT4, a signaling mediator, the human T cells activated with anti-CD3 (OKT3, Invitrogen) were analyzed using the AlphaLISA SureFire Ultra p-STAT4 (Tyr693) Assay Kit (PerkinElmer, Massachusetts, USA).
Specifically, human proteins IL-12, T1.01, T1.02, T1.03 and T1.12 were suspended at 100 ng/ml and diluted by serial dilution. The human T cells activated with anti-CD3 (OKT3, Invitrogen) were treated with the diluted recombinant human IL-12, T1.01, T1.02, T1.03 and T1.12. After 2 hours of treatment, the cells were lysed and treated with a reagent (PerkinElmer) that detects p-STAT4 (phosphorylated STAT4). pSTAT4 was detected at an excitation wavelength of 680 nm and an emission wavelength of 615 nm with a spectrophotometer.

human T cells = test: IFN-γ secretion in human T cells (ELISA); format: cell-based; details: anti-CD3 activated human T cells, 48 hours, FIG. 21
Procedure: For cytokine measurement, enzyme-linked immunosorbent assay (ELISA, R&D systems) was performed on the supernatant stored at −20° C. in the following steps:
(i) The capture antibody was diluted according to the Certificate of Analysis (CoA) and coated on a 96-well plate for 24 hours.
(ii) The wells were washed with a wash solution, and then blocking was performed for 1 hour with 1% BSA (Bovine serum albumin, Sigma) solution.
(iii) The wells were washed with a wash solution, and then the samples were treated for 2 hours.
(iv) The wells were washed with a wash solution, and then the detection antibody was diluted according to the Certificate of Analysis and aliquoted into the wells, and then the wells were treated therewith for 2 hours.
(v) The wells were washed with a wash solution, and then treated with streptavidin-HRP for 20 minutes.
(vi) The wells were washed with a wash solution, and then treated with a substrate solution for 20 minutes.
(vii) The wells were treated with a stop solution, and the absorbance was measured at 450 nm.
Specifically, the human T cells activated with anti-CD3 (OKT3, Invitrogen) were diluted to 5×10^5 cells/ml and dispensed in a 96-well plate at 200 μl/well. Recombinant human IL-12, T1.12, T1.01, T1.02 and T1.03 were diluted to 10 nM and dispensed at 20 μl/well. […]

Substance: recombinant human IL-12: Recombinant human IL-12 used as comparator in signaling and IFN-γ secretion tests [reference compound]
- IL-12 recognition / STAT4 reporter gene expression (620 nm absorbance) (HEK-Blue IL-12 cells): IL-12 was recognized, and STAT4 expressed a reporter gene by inducing phosphorylation
- EC50 [1]: 8.95 pM
- average IFN-γ in supernatant (human T cells): 1,640 pg/ml
